Biological target: bovine cardiac myosin (Bos taurus, UniProt Q9BE39)
Assay: Myosin activation assay (PK/LDH-coupled ATPase, bovine cardiac myofibrils)
Assay type: biochemical
Details: AC20 = concentration at which total response is increased by twenty percent
Summary of the method: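 Values are the concentrations raising the ATPase rate by 20% or 50% over DMSO, from 10-point dose responses fitted with four parameters. Rate is NADH loss at 340 nm via PK/LDH coupling, read 15 min at room temperature, in pH 6.8 PIPES with 50 μM ATP. Bovine cardiac myofibrils were held at pCa ~6 or pCa 10.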

Sequence of bovine cardiac myosin (Q9BE39 whole entry): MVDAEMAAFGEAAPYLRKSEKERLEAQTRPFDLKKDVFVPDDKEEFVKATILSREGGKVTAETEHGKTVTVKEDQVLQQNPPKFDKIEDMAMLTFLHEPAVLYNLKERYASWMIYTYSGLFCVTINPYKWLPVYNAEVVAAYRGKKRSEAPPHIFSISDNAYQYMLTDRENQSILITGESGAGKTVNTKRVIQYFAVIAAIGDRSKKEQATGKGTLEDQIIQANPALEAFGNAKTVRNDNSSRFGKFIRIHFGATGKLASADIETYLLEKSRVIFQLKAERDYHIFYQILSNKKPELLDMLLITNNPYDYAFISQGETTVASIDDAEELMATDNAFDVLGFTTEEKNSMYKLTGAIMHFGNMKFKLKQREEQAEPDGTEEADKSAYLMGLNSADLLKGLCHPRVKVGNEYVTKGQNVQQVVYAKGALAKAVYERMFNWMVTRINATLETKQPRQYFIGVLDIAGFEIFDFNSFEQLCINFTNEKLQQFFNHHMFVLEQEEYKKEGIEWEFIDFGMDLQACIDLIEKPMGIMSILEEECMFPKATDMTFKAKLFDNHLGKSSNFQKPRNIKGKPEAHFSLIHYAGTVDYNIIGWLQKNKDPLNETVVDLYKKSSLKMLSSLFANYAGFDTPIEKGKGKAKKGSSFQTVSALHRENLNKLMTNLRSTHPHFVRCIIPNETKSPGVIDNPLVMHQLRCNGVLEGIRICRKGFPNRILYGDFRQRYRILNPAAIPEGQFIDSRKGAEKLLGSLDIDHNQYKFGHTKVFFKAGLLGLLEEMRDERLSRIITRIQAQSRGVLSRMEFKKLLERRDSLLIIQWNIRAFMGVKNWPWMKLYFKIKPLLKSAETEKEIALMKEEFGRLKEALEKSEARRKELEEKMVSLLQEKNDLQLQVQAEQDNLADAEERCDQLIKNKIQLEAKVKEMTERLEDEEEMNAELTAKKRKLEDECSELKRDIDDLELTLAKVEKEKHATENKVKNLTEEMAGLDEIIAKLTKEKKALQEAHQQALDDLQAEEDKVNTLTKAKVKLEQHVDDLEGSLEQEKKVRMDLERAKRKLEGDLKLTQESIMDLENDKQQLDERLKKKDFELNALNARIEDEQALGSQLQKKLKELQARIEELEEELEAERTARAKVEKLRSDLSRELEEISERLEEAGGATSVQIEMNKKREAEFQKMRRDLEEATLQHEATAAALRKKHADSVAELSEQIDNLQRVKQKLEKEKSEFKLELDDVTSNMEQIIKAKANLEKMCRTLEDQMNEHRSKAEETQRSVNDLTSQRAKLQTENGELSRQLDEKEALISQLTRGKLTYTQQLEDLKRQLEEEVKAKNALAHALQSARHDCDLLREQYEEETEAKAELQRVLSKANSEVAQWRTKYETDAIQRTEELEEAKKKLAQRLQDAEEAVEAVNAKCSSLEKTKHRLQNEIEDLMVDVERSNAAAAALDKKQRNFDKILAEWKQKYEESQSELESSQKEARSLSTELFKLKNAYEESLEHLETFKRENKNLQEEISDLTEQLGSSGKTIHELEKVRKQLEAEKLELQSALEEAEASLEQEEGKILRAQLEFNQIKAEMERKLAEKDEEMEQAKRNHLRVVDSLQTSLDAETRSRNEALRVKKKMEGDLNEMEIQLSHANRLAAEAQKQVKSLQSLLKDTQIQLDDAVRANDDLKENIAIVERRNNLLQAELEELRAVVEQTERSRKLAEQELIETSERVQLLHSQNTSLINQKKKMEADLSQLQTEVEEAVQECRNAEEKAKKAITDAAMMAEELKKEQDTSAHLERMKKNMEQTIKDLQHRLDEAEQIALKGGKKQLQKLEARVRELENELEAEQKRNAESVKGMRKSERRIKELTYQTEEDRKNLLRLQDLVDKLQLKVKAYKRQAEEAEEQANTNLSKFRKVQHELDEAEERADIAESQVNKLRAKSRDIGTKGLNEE
Sequence of bovine cardiac myosin (P85100 whole entry partner): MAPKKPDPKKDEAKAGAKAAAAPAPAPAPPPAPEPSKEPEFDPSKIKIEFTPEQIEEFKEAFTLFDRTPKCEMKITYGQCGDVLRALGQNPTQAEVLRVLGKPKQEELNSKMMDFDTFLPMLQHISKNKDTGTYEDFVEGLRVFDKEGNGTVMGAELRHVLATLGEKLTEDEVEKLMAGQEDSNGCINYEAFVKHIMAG
Sequence of bovine cardiac myosin (Q3SZE5 whole entry partner): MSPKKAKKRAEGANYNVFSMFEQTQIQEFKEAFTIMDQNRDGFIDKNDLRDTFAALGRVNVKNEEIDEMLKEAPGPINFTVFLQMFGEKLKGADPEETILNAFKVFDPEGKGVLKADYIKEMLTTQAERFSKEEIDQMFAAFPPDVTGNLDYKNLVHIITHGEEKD

| Compound | Myosin Activation (AC20) |
| --- | --- |
| CC(F)(C1CCN(C(=O)Nc2cncc(F)c2)CC1)S(=O)(=O)c1cccc(F)c1 (stereo not shown) [Compound 223, 4-(1-fluoro-1-((3-fluorophenyl)sulfonyl)ethyl)-N-(5-fluoropyridin-3-yl)piperidine-1-carboxamide] | + (+ represents myosin activation value AC20 > 5 μM) |
| Cc1ccccc1S(=O)(=O)C(C)(F)C1CCN(C(=O)Nc2ccnnc2)CC1 (stereo not shown) [Compound 53, 4-(1-fluoro-1-(o-tolylsulfonyl)ethyl)-N-(pyridazin-4-yl)piperidine-1-carboxamide] | +++ (+++ represents myosin activation value AC20 < 2 μM) |
| COc1ccc(F)cc1S(=O)(=O)C(F)(F)C1CCN(C(=O)Nc2ccnnc2)CC1 [Compound 68, 4-(difluoro((5-fluoro-2-methoxyphenyl)sulfonyl)methyl)-N-(pyridazin-4-yl)piperidine-1-carboxamide] | + (+ represents myosin activation value AC20 > 5 μM) |
| COc1ccccc1S(=O)(=O)C(C)(C)C1CCN(C(=O)Nc2ccncc2)CC1 [Compound 216, 4-(2-((2-methoxyphenyl)sulfonyl)propan-2-yl)-N-(pyridin-4-yl)piperidine-1-carboxamide] | +++ (+++ represents myosin activation value AC20 < 2 μM) |
| Cc1cnccc1S(=O)(=O)C(F)(F)C1CCN(C(=O)Nc2ccnnc2)CC1 [Compound 70, 4-(difluoro((3-methylpyridin-4-yl)sulfonyl)methyl)-N-(pyridazin-4-yl)piperidine-1-carboxamide] | ++ (++ represents myosin activation value AC20 from 2 μM-5 μM) |
| CC(C)(C1CCN(C(=O)Nc2ccon2)CC1)S(=O)(=O)c1ccc(C(F)(F)F)nc1 [Compound 113, N-(isoxazol-3-yl)-4-(2-((6-(trifluoromethyl)pyridin-3-yl)sulfonyl)propan-2-yl)piperidine-1-carboxamide] | + (+ represents myosin activation value AC20 > 5 μM) |
| CC(C)(C1CCN(C(=O)Nc2ccnnc2)CC1)S(=O)(=O)c1ccn2nccc2c1 [Compound 191, 4-(2-(pyrazolo[1,5-a]pyridin-5-ylsulfonyl)propan-2-yl)-N-(pyridazin-4-yl)piperidine-1-carboxamide] | +++ (+++ represents myosin activation value AC20 < 2 μM) |
| Cn1cncc1S(=O)(=O)C(C)(C)C1CCN(C(=O)Nc2ccnnc2)CC1 [Compound 148, 4-(2-((1-methyl-1H-imidazol-5-yl)sulfonyl)propan-2-yl)-N-(pyridazin-4-yl)piperidine-1-carboxamide] | + (+ represents myosin activation value AC20 > 5 μM) |
| Cn1cc(S(=O)(=O)C(C)(C)C2CCN(C(=O)Nc3cnoc3)CC2)c(C(F)F)n1 [Compound 157, 4-(2-((3-(difluoromethyl)-1-methyl-1H-pyrazol-4-yl)sulfonyl)propan-2-yl)-N-(isoxazol-4-yl)piperidine-1-carboxamide] | +++ (+++ represents myosin activation value AC20 < 2 μM) |
| O=C(Nc1ccns1)N1CCC(C2(S(=O)(=O)c3ccc(OC(F)(F)F)cc3)CC2)CC1 [Compound 207, N-(isothiazol-5-yl)-4-(1-((4-(trifluoromethoxy)phenyl)sulfonyl)cyclopropyl)piperidine-1-carboxamide] | +++ (+++ represents myosin activation value AC20 < 2 μM) |
| Cn1nccc1S(=O)(=O)C(C)(C)C1CCN(C(=O)Nc2ccon2)CC1 [Compound 128, N-(isoxazol-3-yl)-4-(2-((1-methyl-1H-pyrazol-5-yl)sulfonyl)propan-2-yl)piperidine-1-carboxamide] | ++ (++ represents myosin activation value AC20 from 2 μM-5 μM) |
| C[C@](F)(C1CCN(C(=O)Nc2ccc(C#N)nc2)CC1)S(=O)(=O)c1cccc(F)c1 [Compound 292, (R)-N-(6-cyanopyridin-3-yl)-4-(1-fluoro-1-((3-fluorophenyl)sulfonyl)ethyl)piperidine-1-carboxamide] | ++ (++ represents myosin activation value AC20 from 2 μM-5 μM) |
| Cn1nc(C(F)(F)F)cc1S(=O)(=O)[C@](C)(F)C1CCN(C(=O)Nc2ccon2)CC1 [Compound 229] | + (+ represents myosin activation value AC20 > 5 μM) |
